# Marks after values point to notes of the source that are not given here.
# What was measured:
# TR146 cells = assay: In vitro permeation, buccal model; format: in vitro ADME, human
# Procedure: The in vitro permeability of the bioactive compounds present in OFs (n = 9) was determined using a co-culture model composed of TR146 ([31]). The extract and the CS-loaded OFs were added to the apical side of the model as a stock solution. […] The Transepithelial Electrical Resistance (TEER) of the model was evaluated before, during, and at the end of the permeability assay using an EVOM Epithelial Volthometer equipped with a chopstick electrode (World Precision Instruments, Sarasota, FL, USA).
# (§1) The identification and quantification of the phenolic compounds present in the extract and the OFs, as well as the compounds that permeated from the OFs through in vitro and ex vivo assays, were conducted using an LC-ESI-LTQ-Orbitrap-HRMS equipment with an Accela chromatograph (Thermo Scientific, Hemel Hempstead, UK), a photodiode array detector, a quaternary pump, and a temperature-controlled autosampler coupled to a high-resolution LTQ Orbitrap Velos mass spectrometer (Thermo Scientific, Hemel Hempstead, UK) with an ESI source in negative mode ([33], [34]). The system was controlled using the Xcalibur v3.0 software (ThermoFisher Scientific, Hemel Hempstead, UK). Elution was performed on an Acquity™ UPLC® BEH C18 Column (2.1 × 100 mm, i.d., 1.7 µm particle size, Waters Corporation, Wexford, Ireland) maintained at 30°C.
# (§2) Gradient elution was performed with water (A) and acetonitrile (B), both with 0.1% formic acid, with a flow rate and injection volume of 450 µl/min and 5 µl, respectively. The solvent gradient (v/v) of B [t (min), %B] was set as follows: (0, 0), (2, 0), (4, 30), (8, 100), (10, 100), (11, 0), and (14, 0). The samples were analyzed in the full scan mode at a resolving power of 30,000 and m/z 600. Data-dependent MS/MS events were acquired at a resolution of 15,000. Most intense ions were detected via the FTMS mode-triggered data-dependent acquisition mode. Ions that were not sufficiently intense for a data-dependent scan were explored in MSn mode. Precursors were fragmented by collision-induced dissociation using a C-trap with a normalized collision energy (35 V) and an activation time of 10 ms. […] Compounds whose theoretical [M–H]^− values exceeded the MS¹ acquisition range (m/z 100–600) were annotated based on characteristic MSⁿ fragment ions detected within the scan window.
# [1] = Ex vivo permeation, Franz cells; format: in vitro ADME, porcine
# Procedure: Porcine buccal mucosa was used to evaluate the buccal permeation of the phenolic compounds in the extract and the CS-loaded OFs (n = 9). The porcine buccal mucosa was purchased in a local butcher shop, not requiring ethical approval. A Franz cell assembly (9 mm clear jacketed Franz cell with a flat ground joint, 5 ml receptor volume, and permeation area of 0.785 cm^2; PermeGear, Inc., USA) was used. This experiment followed the methodology described by Rodrigues et al. ([32]). In the Franz apparatus, the porcine buccal mucosa was positioned with the cheek side facing the donor chamber, which contained 500 µl (1,000 μg/ml) of the CS extract or the CS-loaded OFs (two square films (2 × 2 cm) with […] of thickness were dissolved in 4 ml of artificial saliva; donor concentration was normalized to ensure equivalence between the extract solution and the film formulation). The receptor chamber was filled with 5 ml PBS, maintained at 37°C, and stirred continuously at 150 rpm. The volume was maintained through the experiments.
# as §1, §2
# Quantitative analysis was performed by using a validated chromatographic method ([38]).
SMILES,Quantification of permeated compounds (TR146 cells; CS extract),Quantification of permeated compounds (TR146 cells; CS-loaded OFs),"Permeation (%) (TR146 cells; from CS extract, 15 min)","Permeation (%) (TR146 cells; from CS extract, 30 min)","Permeation (%) (TR146 cells; from CS extract, 45 min)","Permeation (%) (TR146 cells; from CS extract, 60 min)","Permeation (%) (TR146 cells; from CS extract, 90 min)","Permeation (%) (TR146 cells; from CS extract, 120 min)","Permeation (%) (TR146 cells; from CS extract, 180 min)","Permeation (%) (TR146 cells; from CS extract, 240 min)",Quantification of permeated compounds ([1]; CS extract),Quantification of permeated compounds ([1]; CS-loaded OFs),"Permeation (%) ([1]; from CS extract, 15 min)","Permeation (%) ([1]; from CS extract, 30 min)","Permeation (%) (TR146 cells; from CS-loaded OFs, 15 min)","Permeation (%) (TR146 cells; from CS-loaded OFs, 45 min)","Permeation (%) (TR146 cells; from CS-loaded OFs, 60 min)","Permeation (%) (TR146 cells; from CS-loaded OFs, 90 min)","Permeation (%) (TR146 cells; from CS-loaded OFs, 120 min)","Permeation (%) (TR146 cells; from CS-loaded OFs, 180 min)",further results
O=C(O)C[C@H](C(=O)O)[C@@H](O)C(=O)O [Isocitric acid],222.23 ± 6.57^a mg/ml,306.36 ± 13.65^b mg/g film,0.04 ± 0.01^a %,0.12 ± 0.03^a %,0.15 ± 0.01^a %,0.15 ± 0.01^a %,0.24 ± 0.03^a %,"0.33 ± 0.02^a^,^b %","0.54 ± 0.04^a^,^b %",0.70 ± 0.01^b %,2.20 ± 0.05^a mg/ml,2.21 ± 0.16^a mg/g film,15.13 ± 0.29^a %,13.91 ± 1.51^a %,0.15 ± 0.001^a %,0.50 ± 0.06^a %,0.62 ± 0.02^a %,1.04 ± 0.01^b %,1.40 ± 0.04^b %,2.77 ± 0.01^b %,"Permeation (%) (TR146 cells; from CS-loaded OFs, 30 min): 0.29 ± 0.05^a %; Permeation (%) (TR146 cells; from CS-loaded OFs, 240 min): 3.38 ± 0.06^b %; Permeation (%) ([1]; from CS-loaded OFs, 15 min): 19.05 ± 1.12^a %; Permeation (%) ([1]; from CS-loaded OFs, 30 min): 19.02 ± 0.90^a %"
COc1cc(CC(=O)O)ccc1O [Homovanillic acid],0.58 ± 0.03^a mg/ml,0.41 ± 0.01^a mg/g film,93.51 ± 2.52^b %,92.34 ± 1.55^b %,92.13 ± 1.08^b %,93.10 ± 0.94^b %,94.47 ± 3.00^b %,90.93 ± 2.74^b %,91.20 ± 1.73^b %,87.20 ± 2.06^a %,2.03 ± 0.03^a mg/ml,1.67 ± 0.03^a mg/g film,99.88 ± 2.79^a %,100.53 ± 3.72^a %,106.01 ± 1.46^a %,105.41 ± 0.99^a %,103.62 ± 2.72^a %,105.25 ± 2.83^a %,109.09 ± 1.97^a %,106.07 ± 2.67^a %,"Permeation (%) (TR146 cells; from CS extract, 240 min, listed as homovanillic acid): 87.20%; Permeation (%) (TR146 cells; from CS-loaded OFs, 30 min): 104.89 ± 1.08^a %; Permeation (%) (TR146 cells; from CS-loaded OFs, 240 min): 110.05 ± 3.61^a %; Permeation (%) (TR146 cells; from CS-loaded OFs, 240 min, listed as homovanillic acid): 110.05%"

# Further lines, with some results ahead:
Quantification of permeated compounds (TR146 cells; CS extract),Quantification of permeated compounds (TR146 cells; CS-loaded OFs),"Permeation (%) (TR146 cells; from CS extract, 15 min)","Permeation (%) (TR146 cells; from CS extract, 30 min)","Permeation (%) (TR146 cells; from CS extract, 45 min)","Permeation (%) (TR146 cells; from CS extract, 60 min)","Permeation (%) (TR146 cells; from CS extract, 90 min)","Permeation (%) (TR146 cells; from CS extract, 120 min)","Permeation (%) (TR146 cells; from CS extract, 180 min)","Permeation (%) (TR146 cells; from CS extract, 240 min)",Quantification of permeated compounds ([1]; CS extract),Quantification of permeated compounds ([1]; CS-loaded OFs),"Permeation (%) ([1]; from CS extract, 15 min)","Permeation (%) ([1]; from CS extract, 30 min)",SMILES,"Permeation (%) (TR146 cells; from CS-loaded OFs, 15 min)","Permeation (%) (TR146 cells; from CS-loaded OFs, 45 min)","Permeation (%) (TR146 cells; from CS-loaded OFs, 60 min)","Permeation (%) (TR146 cells; from CS-loaded OFs, 90 min)","Permeation (%) (TR146 cells; from CS-loaded OFs, 120 min)","Permeation (%) (TR146 cells; from CS-loaded OFs, 180 min)",further results
1.60 ± 0.03^a mg/ml,0.82 ± 0.01^a mg/g film,20.51 ± 1.62^b %,14.86 ± 2.71^a %,16.09 ± 1.85^a %,14.96 ± 0.46^a %,19.54 ± 0.94^b %,20.71 ± 1.67^b %,21.62 ± 0.61^b %,23.76 ± 1.68^b %,1.26 ± 0.01^b mg/ml,0.38 ± 0.01^a mg/g film,60.67 ± 0.21^b %,70.72 ± 3.61^b %,O=C(O)CCC(=O)O [Succinic acid],44.20 ± 2.19^a %,56.70 ± 1.23^b %,57.45 ± 0.78^b %,79.12 ± 4.41^c %,88.23 ± 1.26^c %,103.25 ± 1.42^d %,"Permeation (%) (TR146 cells; from CS-loaded OFs, 30 min): 64.44 ± 1.03^c %; Permeation (%) (TR146 cells; from CS-loaded OFs, 240 min): 100.86 ± 1.75^d %; Permeation (%) (TR146 cells; from CS-loaded OFs, 240 min, listed as succinic acid): 100.86%; Permeation (%) ([1]; from CS-loaded OFs, 15 min): 14.00 ± 0.63^a %; Permeation (%) ([1]; from CS-loaded OFs, 30 min): 16.11 ± 0.72^a %"
1.52 ± 0.02^a mg/ml,0.36 ± 0.03^a mg/g film,13.57 ± 0.05^a %,13.06 ± 0.03^a %,14.09 ± 0.01^a %,17.29 ± 0.01^a %,16.17 ± 0.06^a %,29.12 ± 0.19^b %,16.86 ± 0.23^a %,24.23 ± 0.45^b %,1.18 ± 0.1^b mg/ml,0.09 ± 0.02^a mg/g film,5.91 ± 0.06^a %,4.76 ± 0.02^a %,O=C(O)c1cccc(O)c1 [3-Hydroxybenzoic acid],,,,,,,"Permeation (%) ([1]; from CS-loaded OFs, 15 min): 45.86 ± 0.03^b %; Permeation (%) ([1]; from CS-loaded OFs, 30 min): 105.28 ± 3.37^b %"
0.53 ± 0.03^a mg/ml,0.41 ± 0.02^a mg/g film,39.32 ± 0.96^b %,43.86 ± 1.62^b %,42.03 ± 0.79^b %,38.29 ± 0.86^b %,37.52 ± 0.97^b %,25.84 ± 1.03^a %,40.40 ± 0.82^c %,32.88 ± 0.87^b %,0.97 ± 0.03^b mg/ml,0.13 ± 0.01^a mg/g film,19.05 ± 1.63^a %,19.06 ± 0.61^a %,O=C(O)c1ccc(O)c(O)c1 [Protocatechuic acid],89.42 ± 3.08^b %,85.88 ± 2.01^b %,94.08 ± 3.56^b %,96.88 ± 1.43^b %,106.06 ± 0.78^b %,84.76 ± 2.51^b %,"Permeation (%) (TR146 cells; from CS-loaded OFs, 240 min): 75.80 ± 0.91^a %; Permeation (%) (TR146 cells; from CS-loaded OFs, 240 min, listed as protocatechuic acid): 75.80%"
